For orientation: IC50 means the concentration at which inhibition is half-maximal. Read a high IC50 as weaker potency.

Assay [1] has as its system normal fibroblasts stimulated with bleomycin. The assay is described as follows: Bleomycin induced fibrosis in vitro model: normal fibroblasts stimulated with bleomycin, hydroxyproline in culture media. The format is cell-based. Conditions: for IC50: Fibroblast, decreasing concentrations of compound against 10 μM bleomycin, 48 h, hydroxyproline in culture media (FIG. 9); for blocking collagen synthesis: in vitro, normal fibroblasts stimulated with 10 μM bleomycin. The protocol: FIG. 7 is a set of bar graphs illustrating the finding that compounds of the invention are effective against bleomycin induced fibrosis in an in vitro model. Top graph: normal fibroblasts stimulated with bleomycin (Bleo)+IL-1RA (n=3); bottom graph: normal fibroblasts stimulated with Bleo+KA862 (n=3).
FIG. 9 is a set of graphs illustrating the IC50 determination for KA521, KA222, KA306, and KA695. Decreasing concentrations of compound were tested against 10 μM bleomycin for 48 h and hydroxyproline measured in the culture media.
Without wishing to be limited by any theory, designing a focused screening library allows for the identification of analogs with favorable drug-like properties and binding efficacy against IL-1R. Compounds of interest may be tested in vitro using patient-derived scleroderma fibroblasts, normal fibroblasts treated with bleomycin to increase collagen synthesis, and in vivo in scleroderma animal models.
FIG. 7 illustrates the finding that compounds of the invention are effective against bleomycin induced fibrosis. Normal fibroblasts were treated with bleomycin and either IL-1RA or a compound of the invention, so as to inhibit collagen.

The subject of the next assay is SSc fibroblasts. The assay is described as follows: Total collagen (hydroxyproline) in culture media of SSc fibroblasts. It counts as cell-based. Conditions: for total collagen secretion into the culture media as measured by hydroxyproline: SSc dermal fibroblasts, 48 h, 100 μM or 10 μM compound (FIG. 5); for blocking collagen synthesis: in vitro, fibroblasts derived from scleroderma patients. The protocol: FIG. 5 is a set of graphs illustrating target validation studies. […] SSc dermal fibroblasts were treated for 48 h with 100 μM or 10 μM of compound, then media was collected and total collagen was measured by hydroxyproline. Samples were tested in triplicate across different patient samples and expressed as the mean±SEM (n=4). *p<0.0001, **p=0.02.
SSc fibroblasts were treated for 48 h with 1 nM compound, and then culture media was recovered and hydroxyproline was measured. Samples were tested in triplicate across different patient samples and expressed as the mean±SEM (n=3 independent patient samples).
SSc fibroblasts were cultured with selected molecules of the invention, and total collagen synthesis was assessed with hydroxyproline. […] KA862 and KA494 were selected for further in vitro evaluation.

Turning to `COCCOC(=O)C1=C(C)NC2=C(C(=O)CCC2)C1c1cccc2ccccc12` (stereo not drawn) [KA695, 2-methoxyethyl 2-methyl-4-(naphthalen-1-yl)-5-oxo-1,4,5,6,7,8-hexahydroquinoline-3-carboxylate], the IC50 in assay [1] was approximately 1 nM.
As to `O=C(C[S+]([O-])CC(=O)N(CC(=O)NC1CCCCC1)c1cccc2ccccc12)Nc1ccc(F)cc1` (stereo not drawn) [KA494, N-(2-(cyclohexylamino)-2-oxoethyl)-2-((2-((4-fluorophenyl)amino)-2-oxoethyl)sulfinyl)-N-(naphthalen-1-yl)acetamide], the blocking collagen synthesis entry (in assay [1]; with SSc fibroblasts) was “efficacious in blocking collagen synthesis” each time. Further, the “total collagen secretion into the culture media as measured by hydroxyproline” value in the assay on SSc fibroblasts is “effective at reducing total collagen secretion”.
Turning to `O=C(CSc1nnc(Cc2csc(Nc3cccc(Cl)c3)n2)n1Cc1ccco1)OC1CCCCC1` [KA862, cyclohexyl 2-((5-((2-((3-chlorophenyl)amino)thiazol-4-yl)methyl)-4-(furan-2-ylmethyl)-4H-1,2,4-triazol-3-yl)thio)acetate], in assay [1], the blocking collagen synthesis result is on record as “efficacious in blocking collagen synthesis”. In the assay with SSc fibroblasts, the “total collagen secretion into the culture media as measured by hydroxyproline” value is “effective at reducing total collagen secretion” and the blocking collagen synthesis entry was “efficacious in blocking collagen synthesis”.
The compound `Cc1nn(-c2ccccc2)c2c1C(c1c(O)ccc3ccccc13)C(C#N)=C(N)O2` (stereo not drawn) [KA222, 6-amino-4-(2-hydroxynaphthalen-1-yl)-3-methyl-1-phenyl-1,4-dihydropyrano[2,3-c]pyrazole-5-carbonitrile] showed an IC50 in assay [1] of approximately 1 nM.
Consider `COc1cccc(NC(=O)Cn2nc(-c3ccncc3)nc2SCC(=O)NC2CCCC2)c1` [KA529, (2-[5-{[2-(cyclopentylamino)-2-oxoethyl]sulfanyl}-3-(4-pyridinyl)-1H-1,2,4-triazol-1-yl]-N-(3-methoxyphenyl)acetamide)], for which the “total collagen secretion into the culture media as measured by hydroxyproline” value in the assay with SSc fibroblasts is “effective at reducing total collagen secretion”.
In the case of `COC(=O)C1=C(C)NC2=C(C(=O)CC(c3ccc(OC)c(OC)c3)C2)C1c1cccc2ccccc12` (stereo not drawn) [KA306, methyl 7-(3,4-dimethoxyphenyl)-2-methyl-4-(naphthalen-1-yl)-5-oxo-1,4,5,6,7,8-hexahydroquinoline-3-carboxylate], the IC50 in assay [1] is approximately 1 nM.
For `O=C(CN(Cc1ccc2c(c1)OCO2)S(=O)(=O)c1ccc(S(=O)(=O)NC2CCCC2)cc1)Nc1ccccc1` [KA199, N^2-(1,3-benzodioxol-5-ylmethyl)-N^2-{[4-(cyclopentylsulfamoyl)phenyl]sulfonyl}-N-phenyl glycinamide], the “total collagen secretion into the culture media as measured by hydroxyproline” value in the assay with SSc fibroblasts is given as “effective at reducing total collagen secretion”.
Regarding `O=C(C[S+]([O-])CC(=O)N(CC(=O)NC1CCCC1)Cc1ccccc1Cl)Nc1ccc2c(c1)OCO2` (stereo not drawn) [KA680, (N^2-({[2-(1,3-benzodioxol-5-ylamino)-2-oxoethyl]sulfinyl}acetyl)-N^2-(2-chlorobenzyl)-N-cyclopentylglycinamide)], the “total collagen secretion into the culture media as measured by hydroxyproline” value in the assay on SSc fibroblasts is “effective at reducing total collagen secretion”.

For the origin of these results see patent publication US11345696B2, “Compounds and methods of treating or ameliorating an IL-1R-mediated disease or disorder using same” (DREXEL UNIVERSITY, priority 2014, dated 2022).
